Consider four molecules from patent publication US20140073793A1, “Germanium-containing camptothecin analogues” (BioNumeric Pharmaceuticals, Inc., priority 2012, published 2014).

One assay relates to A2780/DX5 cells. The assay is described as follows: cells. In kind it is cell-based, human. As to the method:
(§1) Wild type human ovarian cancer cells (A2780/WT) and doxorubicin-resistant human ovarian cancer cells (A2780/DX5) were cultured in RPMI 1640 medium supplemented with 10% fetal bovine serum and 2 mM glutamine, and grown in a 37° C. incubator with 5% CO2. BNP1350 (also designated 7-[2-trimethylsilyl)ethyl]-20(S)-camptothecin; BNP1350; and Karenitecin®); BNP1394 (also designated 7-[2′-trimethylgermanyl]ethyl-20(S) camptothecin; Topotecan; and 9-NH2-camptothecin were synthesized and purified at BioNumerik Pharmaceuticals, Inc., and dissolved in DMSO for use in cytotoxicity experiments where inhibition of cell growth was measured using the sulforhodamine B (SRB) assay to assess cytotoxicity and absorbance at 570 nm (A570) in order to calculate the percentage of cell control (or percent cell survival) SRB assay. See. e.g., Skehan P., Stieng R., Scudiero D., et al. New colorimetric cytotoxicity assay for anticancer-drug screen. J. Natl. Cancer Inst. 82:1107-1112 (1990)).
(§2) Briefly, cells were seeded (500 cells/well in 100 μL volume) to 96-well microliter plates and allowed to attach for 24 hours prior to treatment with BNP1350, BNP1394, Topotecan, and 9-NH2-camptothecin for 2 hours. Following this 2 hour treatment, BNP1350, BNP1394, Topotecan, and 9-NH2-camptothecin were removed, cells were washed with drug-free media (200 μL) and then drug-free media (200 μL) was added to the cells and cells were allowed to continue growing at 37° C. with 5% CO2 before the SRB assay was performed (total experiment time from time of seeding was 5 days, during which a total of five (5) cell-doublings occurred).
(§3) Wild-type human ovarian cancer cells (A2780/WT) and doxorubicin-resistant human ovarian cancer cells (A2780/DX5) were cultured in RPMI 1640 medium supplemented with 10% fetal bovine serum and 2 mM L-glutamine, and grown in a 37° C. incubator with 5% CO2. Population doubling times for the two cell lines used in this study encompassed a total of five cell doublings corresponding to approximately 5 days for A2780/WT and A2780/DX5 cells. Both cell lines were maintained as monolayered cultures in T-25 or T-75 flasks and then seeded to microliter plate wells for experiments described herein.
(§4) In brief, cells were seeded (500 cells/well in 100 μL total volume) into 96-well microliter plates and allowed to attach for 24 hours prior to treatment with BNP1350, BNP1394, Topotecan, or 9-NH2-camptothecin for 2 hours. The aforementioned compounds were dissolved in DMSO for use in cytotoxicity experiments where inhibition of cell growth was measured using the SRB assay.
(§5) Following this 2 hour drug treatment, the BNP1350, BNP1394, Topotecan, and 9-NH2-camptothecin were removed, cells were washed with drug-free media (200 μL) and then drug-free media (200 μL) was added to the cells and cells were allowed to continue growing at 37° C. with 5% CO2 before the SRB assay was performed (total experiment time from time of seeding was 5 days, during which time a total of 5 cell doublings had occurred).
(§6) The sulforhodamine B (SRB) cytotoxicity assay (see, Skehan P, et al., New colorimetric cytotoxicity assay for anticancer-drug screening. J. Natl. Cancer Inst. 82:1107-1112 (1990)) was used to determine the cytotoxic effects of BNP1350, BNP10120 or BNP10121 on cell growth in vitro. Briefly, after the medium was aspirated from individual plate wells, trichloroacetic acid (100 μL of 10.0% solution) was added to each well, and the plates were incubated at 4° C. for at least 1 hour. The plates were washed five-times with water using an automated microplate washer (Model EL 404, Bio-Tek Instruments), SRB solution (100 μL of 0.4 grams SRB dissolved in 100 mL 1.0 percent acetic acid) was added, and plates remained at room temperature for 15 minutes. The plates were then washed five-times using acetic acid (1.0%), air dried, and bound dye was solubilized in Tris base (150 μL, 10 mM). […]

The subject of the next assay is A2780/WT cells. The assay is described as follows: cells. In kind it is cell-based, human. How it is done:
as §1, §2, §3, §4, §5, §6

Where [1] appears, read: 2 hour drug treatment, SRB at 5 days, read-out: IC50 Test 1.
[2] abbreviates: 2 hour drug treatment, SRB at 5 days, read-out: IC50 Test 2.
Where [3] appears, read: 2 hour drug treatment, SRB at 5 days, read-out: IC50 Test 3.
The mark [4] stands for this setting: 2 hour drug treatment, SRB at 5 days, read-out: IC50 Test 4.
Where [5] appears, read: 2 hour drug treatment, SRB at 5 days, read-out: IC50 Test 5.
[6] abbreviates: average of the tests, read-out: IC50 Average.
Setting [7] is: 2 hour drug treatment, SRB at 5 days, read-out: IC50 Test 6.
The mark [8] stands for this setting: average of Tests 1-6, read-out: IC50 Average.
[9] abbreviates: Homo sapiens, 2 hour drug treatment, SRB at 5 days, read-out: IC50 Test 1.
The mark [10] stands for this setting: Homo sapiens, 2 hour drug treatment, SRB at 5 days, read-out: IC50 Test 2.
Where [11] appears, read: Homo sapiens, 2 hour drug treatment, SRB at 5 days, read-out: IC50 Test 3.
Setting [12] is: Homo sapiens, 2 hour drug treatment, SRB at 5 days, read-out: IC50 Test 4.
Setting [13] is: Homo sapiens, 2 hour drug treatment, SRB at 5 days, read-out: IC50 Test 5.

Read-outs that look alike come from different tables or passages of the source.

One may read the IC50 as the point on the concentration scale where inhibition reaches its midpoint. Turning to `CC[C@@]1(O)C(=O)OCc2c1cc1n(c2=O)Cc2cc3c(N)cccc3nc2-1` [9-NH2-camptothecin, 9-amino camptothecin], the “inhibition of cell growth (in words)” value in the assay with A2780/DX5 cells and in the assay on A2780/WT cells was “inhibitors” each time. Also, the IC50 with A2780/DX5 cells (setting [1]) is 600 nM; with A2780/DX5 cells (setting [2]), 250 nM; in the assay on A2780/DX5 cells (setting [3]) it was 250 nM; with A2780/DX5 cells (setting [4]), 550 nM; in the assay on A2780/DX5 cells (setting [5]), 600 nM; in the assay on A2780/DX5 cells (setting [6]), 450 nM. Also, the IC50 with A2780/WT cells (setting [1]) is 150 nM; with A2780/WT cells (setting [2]), 90 nM; with A2780/WT cells (setting [3]) it was 150 nM; in the assay on A2780/WT cells (setting [4]) it was 200 nM; in the assay with A2780/WT cells (setting [5]), 250 nM; in the assay on A2780/WT cells (setting [7]) it was 90 nM. In addition, the IC50 in the assay with A2780/WT cells (setting [8]) was found to be 155 nM.
Turning to `CC[C@@]1(O)C(=O)OCc2c1cc1n(c2=O)Cc2c-1nc1ccccc1c2CC[Si](C)(C)C` [BNP1350], the “IC50 values (in words)” value in the assay on A2780/DX5 cells and in the assay with A2780/WT cells was “nanomolar” each time. In addition, the “inhibition of cell growth (in words)” value with A2780/DX5 cells and with A2780/WT cells was “inhibitors” each time. The half-maximal inhibitory concentration (IC50) in the assay on A2780/DX5 cells (setting [1]) worked out at 15 nM; in the assay on A2780/DX5 cells (setting [2]), 15 nM; in the assay on A2780/DX5 cells (setting [3]), 15 nM; with A2780/DX5 cells (setting [4]), 24 nM; with A2780/DX5 cells (setting [5]) it was 10 nM; in the assay with A2780/DX5 cells (setting [6]), 16 nM. Further, the IC50 was 15 nM with A2780/WT cells (setting [1]); 15 nM with A2780/WT cells (setting [2]); 15 nM in the assay on A2780/WT cells (setting [3]); 20 nM in the assay with A2780/WT cells (setting [4]); 13 nM in the assay on A2780/WT cells (setting [5]); 16 nM with A2780/WT cells (setting [7]). Besides, the IC50 in the assay with A2780/WT cells (setting [8]) turned out to be 15 nM.
For `CC[C@@]1(O)C(=O)OCc2c1cc1n(c2=O)Cc2c-1nc1ccccc1c2C[CH2][Ge]([CH3])([CH3])[CH3]` [BNP1394, 7-[2′-trimethylgermanyl]ethyl-20(S) camptothecin], the “IC50 values (in words)” value with A2780/DX5 cells and in the assay on A2780/WT cells was “nanomolar” in each case. Also, the “inhibition of cell growth (in words)” value in the assay on A2780/DX5 cells and in the assay on A2780/WT cells was “inhibitors” in each case.
In the case of `CC[C@@]1(O)C(=O)OCc2c1cc1n(c2=O)Cc2cc3c(CN(C)C)c(O)ccc3nc2-1` [Topotecan, 9-dimethylaminomethyl-10-hydroxy camptothecin], the “inhibition of cell growth (in words)” value with A2780/DX5 cells and in the assay with A2780/WT cells was “inhibitors” in each case. In addition, the half-inhibitory concentration (IC50) in the assay on A2780/DX5 cells (setting [9]) is 550 nM; with A2780/DX5 cells (setting [10]), 800 nM; in the assay with A2780/DX5 cells (setting [11]), 2000 nM; with A2780/DX5 cells (setting [12]), 1000 nM; with A2780/DX5 cells (setting [13]), 2000 nM; in the assay with A2780/DX5 cells (Homo sapiens, average of the tests, read-out: IC50 Average) it was 1270 nM. For the same molecule, the IC50 in the assay with A2780/WT cells (setting [9]) was 350 nM; in the assay on A2780/WT cells (setting [10]), 200 nM; with A2780/WT cells (setting [11]) it was 300 nM; in the assay on A2780/WT cells (setting [12]), 600 nM; in the assay with A2780/WT cells (setting [13]), 900 nM; in the assay on A2780/WT cells (Homo sapiens, 2 hour drug treatment, SRB at 5 days, read-out: IC50 Test 6) it was 600 nM. Moreover, in the assay with A2780/WT cells (Homo sapiens, average of Tests 1-6, read-out: IC50 Average), the concentration for half-maximal inhibition (IC50) is 492 nM.
